# Experimental data published in ChEMBL document CHEMBL1201862, “PubChem BioAssay data set” (2004).
# Calls of active or inactive are those of the source. Rule as the data show it, for most assays here: actives have a measured EC50 and inactives only a lower limit.
# How the values were obtained:
# Protein RecA = target: T1, Protein RecA (Mycobacterium tuberculosis, UniProt P9WHJ3); test: Fluorescence Cell-Free Homogeneous Dose Retest to Identify Inhibitors of RecA-Intein Splicing Activity. [Related pubchem assays (depositor defined):AID2097, AID2223, AID489010, AID492950]; assay type: functional
# T1 sequence (P9WHJ3 whole entry): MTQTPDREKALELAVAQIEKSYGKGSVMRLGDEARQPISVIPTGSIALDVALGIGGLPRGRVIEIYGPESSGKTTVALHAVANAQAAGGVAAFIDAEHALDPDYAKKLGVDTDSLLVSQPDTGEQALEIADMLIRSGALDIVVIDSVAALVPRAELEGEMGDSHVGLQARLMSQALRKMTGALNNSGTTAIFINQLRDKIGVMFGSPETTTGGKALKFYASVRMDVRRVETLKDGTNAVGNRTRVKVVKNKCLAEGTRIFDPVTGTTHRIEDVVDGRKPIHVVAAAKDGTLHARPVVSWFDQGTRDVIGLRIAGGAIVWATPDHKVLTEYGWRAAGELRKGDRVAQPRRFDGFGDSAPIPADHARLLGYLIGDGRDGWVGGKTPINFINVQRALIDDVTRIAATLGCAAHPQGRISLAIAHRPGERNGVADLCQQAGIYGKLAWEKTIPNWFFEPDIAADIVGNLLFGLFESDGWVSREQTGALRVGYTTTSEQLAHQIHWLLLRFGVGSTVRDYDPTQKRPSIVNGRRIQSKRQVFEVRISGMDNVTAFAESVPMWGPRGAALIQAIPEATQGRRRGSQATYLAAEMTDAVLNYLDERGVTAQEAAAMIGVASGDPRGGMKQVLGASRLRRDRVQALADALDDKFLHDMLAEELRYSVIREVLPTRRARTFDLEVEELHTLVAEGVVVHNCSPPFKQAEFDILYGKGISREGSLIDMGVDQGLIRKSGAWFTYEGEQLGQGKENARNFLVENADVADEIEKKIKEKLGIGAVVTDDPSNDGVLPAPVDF
# Vero [1] = test: mammalian cell viability reduction – secondary assay, cytotoxicity control for West Nile virus antiviral project, dose response (AID 1650); assay type: functional; settings: Chlorocebus sabaeus
# [2] = Luminescence Cell-Based Dose Retest to Confirm Inhibitors of Cancer Stem Cells. [Related pubchem assays (depositor defined):AID2717, AID2721]; assay type: functional; settings: Homo sapiens
# [3] = target: T2, Heat shock factor protein 1 (Mus musculus, UniProt P38532); test: enhancement of HSF1-driven luciferase signal – cell-based, NIH3T3, luminescence, dose retest, confirmation (AID 435004); assay type: functional;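 also: stress induced by proteasome inhibitor MG132 added 30 min after compound; luciferase reporter driven by HSF1 response element in NIH3T3 cells; actives raise luminescence as potentiators of the MG132 stress response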
# T2 sequence (P38532 whole entry): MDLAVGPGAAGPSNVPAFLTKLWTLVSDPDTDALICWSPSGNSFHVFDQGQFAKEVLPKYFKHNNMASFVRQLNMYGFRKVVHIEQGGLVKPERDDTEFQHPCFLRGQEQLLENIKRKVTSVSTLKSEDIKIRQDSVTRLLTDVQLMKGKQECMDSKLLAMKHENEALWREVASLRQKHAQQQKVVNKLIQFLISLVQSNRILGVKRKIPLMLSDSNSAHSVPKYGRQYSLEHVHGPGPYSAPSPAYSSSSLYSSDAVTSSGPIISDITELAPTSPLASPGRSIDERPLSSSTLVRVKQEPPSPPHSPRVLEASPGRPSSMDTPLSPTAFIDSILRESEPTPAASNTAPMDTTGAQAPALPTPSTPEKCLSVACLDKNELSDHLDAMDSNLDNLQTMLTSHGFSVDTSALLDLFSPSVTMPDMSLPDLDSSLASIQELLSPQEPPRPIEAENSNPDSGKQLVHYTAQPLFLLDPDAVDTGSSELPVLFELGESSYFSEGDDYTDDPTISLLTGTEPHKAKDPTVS
# [4] = target: T3, Replicative DNA helicase DnaB (Mycobacterium tuberculosis, UniProt P9WMR3); test: DnaB intein splicing inhibitors, dose response, biochemical, cell-free fluorescence (AID 449749); assay type: functional
# T3 sequence (P9WMR3 whole entry): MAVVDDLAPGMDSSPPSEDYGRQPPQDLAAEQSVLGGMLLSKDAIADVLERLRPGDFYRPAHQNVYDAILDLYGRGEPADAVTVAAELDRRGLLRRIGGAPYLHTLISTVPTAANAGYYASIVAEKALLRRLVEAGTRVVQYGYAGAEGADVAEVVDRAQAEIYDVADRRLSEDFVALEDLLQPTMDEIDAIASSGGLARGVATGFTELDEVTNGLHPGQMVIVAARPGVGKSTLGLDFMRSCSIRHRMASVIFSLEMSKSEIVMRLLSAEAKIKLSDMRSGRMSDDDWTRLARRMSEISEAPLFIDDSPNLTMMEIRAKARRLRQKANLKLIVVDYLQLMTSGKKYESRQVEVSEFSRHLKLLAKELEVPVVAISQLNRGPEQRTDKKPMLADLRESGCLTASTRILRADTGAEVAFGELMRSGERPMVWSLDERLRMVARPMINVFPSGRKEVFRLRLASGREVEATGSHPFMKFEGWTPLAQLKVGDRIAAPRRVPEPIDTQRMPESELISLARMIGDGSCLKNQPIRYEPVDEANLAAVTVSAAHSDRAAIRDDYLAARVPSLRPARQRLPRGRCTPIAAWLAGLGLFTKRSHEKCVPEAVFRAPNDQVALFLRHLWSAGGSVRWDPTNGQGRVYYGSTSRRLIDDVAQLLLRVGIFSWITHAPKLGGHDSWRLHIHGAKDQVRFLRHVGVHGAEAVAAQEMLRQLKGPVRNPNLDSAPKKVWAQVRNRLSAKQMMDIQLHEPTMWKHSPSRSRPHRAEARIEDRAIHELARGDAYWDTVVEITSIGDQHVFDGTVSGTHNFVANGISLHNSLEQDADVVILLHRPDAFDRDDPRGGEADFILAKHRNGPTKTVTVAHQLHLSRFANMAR
# [5] = mitochondrial function rescue without frataxin homolog – Friedreich's ataxia, plus single-dose screen, dose response (AID 1465); assay type: functional;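 also: yeast depleted of Yfh1p frataxin homolog grown on glycerol needing respiration; WST-1 tetrazolium dye reduction as measure of cellular dehydrogenase metabolic activity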
# Troponin, cardiac muscle = Troponin, cardiac muscle (Homo sapiens, UniProt P19429+P45379+P63316); test: Fluorescence-based biochemical high throughput dose response assay for activators of the calcium sensitivity of cardiac Regulated Thin Filaments (RTF). [Related pubchem assays (depositor defined):AID493008, AID493018, AID504382, AID504383]; assay type: protein-complex assay
# [6] = fluconazole-exposed Candida albicans growth modulators – fluorescence, retest, confirmation (AID 2467); assay type: functional, cell-based
# [7] = NIH-3T3 fibroblast cytotoxicity, dose response, cytotoxicity control, cell-based, fluorescence, Alamar Blue, secondary assay (AID 2327); assay type: functional;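 also: NIH-3T3 mouse fibroblasts cultured with fluconazole at 8 µg/mL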
# Vero [8] = test: cells; assay type: functional; settings: Chlorocebus sabaeus
# NS3 = NS3 (Hepatitis C virus, UniProt A3EZJ3); test: PubChem AID 2173; parameters: species or system Hepacivirus hominis
# [9] = target: Induced myeloid leukemia cell differentiation protein Mcl-1 (Homo sapiens, UniProt Q07820); assay type: functional
# Vero [10] = test: viability of Vero cells under compound – cytotoxicity control for flavivirus capping enzyme inhibitors (AID 588742); assay type: functional; settings: Chlorocebus sabaeus
# Vero [11] = test: cells; assay type: functional, cell-based; settings: Chlorocebus sabaeus
# [12] = luciferase reporter signal suppression in cells – H4 neuroglioma cells, luminescence, dose response (AID 1990); assay type: functional, cell-based
# [13] = Luminescence Cell-Based Dose Response HTS to Identify Inhibitors of 5'UTR Stem-Loop Driven Prion Protein mRNA Translation in H4 Neuroglioblastoma Cells. [Related pubchem assays: 1827 (Project Summary), 1813 (Primary HTS)]; assay type: functional
# [14] = alpha-synuclein stem-loop luciferase translation blockers – H4 neuroglioma cells, luminescence, confirmation (AID 1988); assay type: functional, cell-based
# [15] = Luminescence Cell-Based Dose Confirmation to Identify Activators of 5'UTR Stem-Loop Driven Alpha-Synuclein mRNA Translation in H4 Neuroglioblastoma Cells. [Related pubchem assays: 1829 (Project Summary), 1814 (Primary HTS)]; assay type: functional
# [16] = Luminescence Cell-Based Dose Response to Identify Activators of 5'UTR Stem-Loop Driven Prion Protein mRNA Translation in H4-C Neuroglioblastoma Cells. [Related pubchem assays: 1829 (Project Summary), 1814 (Primary HTS)]; assay type: functional
# [17] = Luminescence Cell-Based Dose Response HTS to Identify Activators of Luciferase Translation or Activity in H4 […] Cells. [Related pubchem assays: 1829 (Project Summary), 1814 (Primary HTS)]; assay type: functional
# H4 = test: Luminescence Cell-Based Dose Response HTS to Identify Activators of 5'UTR Stem-Loop Driven Prion Protein mRNA Translation in H4 Neuroglioblastoma Cells. [Related pubchem assays: 1829 (Project Summary), 1814 (Primary HTS)]; assay type: functional; settings: Homo sapiens
# [18] = Luminescence Cell-Based Dose Response to Identify Activators of Luciferase Translation or Activity in H4-C Neuroglioblastoma Cells. [Related pubchem assays: 1829 (Project Summary), 1814 (Primary HTS)]; assay type: functional
# [19] = Luminescence Cell-Based Dose Confirmation HTS to Identify Activators of 5'UTR Stem-Loop Driven Alpha-Synuclein mRNA Translation in H4 Neuroglioblastoma Cells. [Related pubchem assays: 1829 (Project Summary), 1814 (Primary HTS)]; assay type: functional
# [20] = microbe, parasite or virus in culture; assay type: functional; settings: Mycobacterium tuberculosis
# [21] = target: T2, Heat shock factor protein 1; test: decrease of HSF1-responsive luciferase luminescence – cell-based, NIH3T3, dose retest, confirmation (AID 2382); assay type: functional;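 also: NIH3T3 fibroblasts with HSF1-driven luciferase reporter stressed by proteasome inhibitor MG132; luminescence from HSF1-driven luciferase expression after 8 hours of MG132 stress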
# BJ = test: growth inhibition of engineered Ras-driven BJ cells – cell-based, alamar blue fluorescence, cherrypicked samples, dose response (AID 2631); assay type: functional; settings: Homo sapiens;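 also: confirmatory dose-response assay in RAS-dependent BJ fibroblasts engineered with TERT, LT and ST, with cytotoxicity read by fluorescence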
# [22] = target: Sphingosine 1-phosphate receptor 1 (Homo sapiens, UniProt P21453); assay type: functional;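 also: Tango beta-arrestin reporter U2OS cells stimulated with S1P near its EC80; inhibitor potency meaning antagonism of receptor activation by the natural agonist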
# [23] = target: Sphingosine 1-phosphate receptor 4 (Homo sapiens, UniProt O95977); test: Fluorescence dose response cell-based high throughput screening assay for antagonists of the Sphingosine 1-Phosphate Receptor 4 (S1P4). [Related pubchem assays: 1524 (Confirmation in triplicates.), 1510 (Primary screen.)]; assay type: functional
# Streptokinase A = target: T4, Streptokinase A (Streptococcus pyogenes serotype M1, UniProt P10520); test: viability-normalized secreted streptokinase activity reduction – plasminogen activation absorbance, OD405, dose response (AID 1914); assay type: functional, Streptococcus pyogenes M1 GAS;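 also: secreted streptokinase activity via plasminogen activation per viability signal from cell pellet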
# T4 sequence (P10520 whole entry): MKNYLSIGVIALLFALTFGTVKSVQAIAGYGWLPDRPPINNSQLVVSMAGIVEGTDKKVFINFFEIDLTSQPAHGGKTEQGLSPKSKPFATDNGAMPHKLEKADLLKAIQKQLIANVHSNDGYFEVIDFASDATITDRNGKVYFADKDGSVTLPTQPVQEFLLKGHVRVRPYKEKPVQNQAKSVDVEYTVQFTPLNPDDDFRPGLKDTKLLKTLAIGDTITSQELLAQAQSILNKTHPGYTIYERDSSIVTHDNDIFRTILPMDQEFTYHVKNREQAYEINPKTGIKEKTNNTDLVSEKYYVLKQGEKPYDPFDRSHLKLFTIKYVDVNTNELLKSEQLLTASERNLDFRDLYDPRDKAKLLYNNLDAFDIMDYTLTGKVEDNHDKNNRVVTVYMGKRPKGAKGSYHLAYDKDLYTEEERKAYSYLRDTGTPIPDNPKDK
# Streptococcus = test: GAS UMAA2166 growth inhibition – luminescence, BacTiterGlo, counter-screen for streptokinase expression inhibitor project, dose response (AID 1915); assay type: functional, organism-based;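 also: potency for reduction of bacterial viability or growth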
# [24] = tested on: Streptococcus sp. 'group A'; test: Streptococcus pyogenes SK(-)GAS viability under kanamycin – luminescence, BacTiterGlo, confirmation, counter-screen for streptokinase expression inhibitor project, dose response (AID 1900); assay type: functional, organism-based
smiles,measurement,setting,value
COc1ccc(/C=C/C(=O)c2ccc(O)cc2)cc1COc1ccc(F)cc1,EC50,Protein RecA,> 380 µM (inactive)
same,CC50,Vero [1],33.9 µM (active)
same,AC50,[2],3.91 µM (active)
same,EC50,[3],24.3 µM (active)
same,AC50,[4],> 380 µM (inactive)
COc1ccc(NC(=O)/C(C#N)=C\c2ccc(N3CCOCC3)o2)cc1,EC50,[5],> 100 µM (active)
same,EC50,"Troponin, cardiac muscle",1.58 µM (active)
same,EC50,[6],1.68 µM (active)
same,EC50,[7],> 160 µM (inactive)
CN=c1ccc(Br)cc(C(=O)/C=C/c2ccc(Cl)cc2Cl)c1O,CC50,Vero [8],14.4 µM (active)
same,IC50,NS3,8.09 µM (active)
same,IC50,[9],5.26 µM (active)
same,CC50,Vero [10],24.7 µM (active)
same,IC50,Vero [11],12.2 µM (active)
Cn1c(=O)oc2cc(S(=O)(=O)N3CCCC(C(=O)NC4CCCc5ccccc54)C3)ccc21 (stereo not drawn),EC50,[12],13.8 µM (active)
same,EC50,[13],22.5 µM (active)
same,CC50,Vero [1],2.41 µM (active)
same,EC50,[14],12.9 µM (active)
O=C(Nc1nc2ccccc2[nH]1)C12CC3CC(CC(C3)C1)C2,EC50,[15],341 nM (active)
same,EC50,[16],299 nM (active)
same,EC50,[17],190 nM (active)
same,EC50,H4,101 nM (active)
same,EC50,[18],358 nM (active)
same,EC50,[19],< 100 nM (active)
same,CC50,[20],> 40 µM (active)
O=C(CCl)Nc1cc(SCC(O)CO)cc([N+](=O)[O-])c1 (stereo not drawn),EC50,[21],2.13 µM (active)
same,EC50,BJ,1.05 µM (active)
same,IC50,[22],4.46 µM (active)
same,IC50,[23],1.31 µM (active)
Oc1c(Cl)cc(Cl)cc1/C=N/NC(=S)NC1CC2C=CC1C2 (stereo not drawn),EC50,Streptokinase A,539 nM (active)
same,IC50,NS3,8.21 µM (active)
same,EC50,Streptococcus,1.3 µM (active)
same,EC50,[24],333 nM (active)
